The values below come from ChEMBL document CHEMBL1156364, “Chondropsin D, a new 37-membered-ring macrolide lactam from the marine sponge Chondropsis species” (J Nat Prod, 2001).

In test [1] the test system is MOLT-4. Description: Cytotoxicity against human MOLT4 cells after 2 days by XTT assay. Format: functional, cell-based. To be noted: MOLT-4, 48 h. (Tetrazolium dyes change colour on reduction, which living cells bring about.)
Test [2] in a line: Cytotoxicity against human LOX cells after 2 days by XTT assay. Format: functional, cell-based. To be noted: 48 h.

The IC50 is the concentration needed to halve the response being measured.

Converted amounts (≈) assume the structure as drawn.

For `COC(=O)C(C)(C)C(O)C(C)C(=O)C(C)(C)/C=C/C(=O)NC(C(O)C(C)C)C(O)C(C)/C=C(\C)C(O)C(C)CCC(O)C(C)C(=O)NC1C(C)OC(=O)C(C(O)C(=O)O)NC(=O)/C=C/C=C/CC/C=C/C=C/C[C@@H]2C[C@@H](C)C[C@@H](CC(O)C(C)C(O)/C(C)=C/C(C)C(O)/C(C)=C/CC(OC(=O)CC(O)C(=O)O)C(C)C1O)O2` (some centres not stated) [CHONDROPSIN D], the IC50 worked out at 0.25 µg/mL (≈ 0.157 µM) in test [1] and 0.01 µg/mL (≈ 0.00629 µM) in test [2].
